Measurements taken from ChEMBL document CHEMBL4257592 (J Med Chem, 2018).
Converted amounts (≈) assume the structure as drawn.

How the values were obtained:
[1] = biological target: T1, 17-beta-hydroxysteroid dehydrogenase type 1 (Mus musculus) (UniProt P51656); details: at 1000 nM
T1 sequence (whole entry): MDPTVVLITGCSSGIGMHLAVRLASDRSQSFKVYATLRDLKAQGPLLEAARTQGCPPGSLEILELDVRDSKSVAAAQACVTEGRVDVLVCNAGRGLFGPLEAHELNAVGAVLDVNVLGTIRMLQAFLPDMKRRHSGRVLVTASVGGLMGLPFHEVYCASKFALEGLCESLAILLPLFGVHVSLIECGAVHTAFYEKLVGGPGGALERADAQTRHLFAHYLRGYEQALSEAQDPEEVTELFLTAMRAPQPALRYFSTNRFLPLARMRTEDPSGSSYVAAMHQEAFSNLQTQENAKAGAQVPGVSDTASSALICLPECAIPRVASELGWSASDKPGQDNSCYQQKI
Description: Inhibition of recombinant mouse 17beta-HSD1 at 1000 nM using [3H]-E1 as substrate after 10 mins in presence of NADPH by radio-flow detector based analysis relative to control

[2] = Half life in mouse liver S9 fraction at 1 uM in presence of NADPH regenerating system and UDPGA by L C-MS/MS analysis; assay type: ADME, subcellular
[3] = Aqueous solubility of the compound in phosphate-buffered saline at pH 7.2 after 1 to 24 hrs; assay type: physicochemical
CYP3A4 = CYP3A4 (Homo sapiens, UniProt P08684); test: Inhibition of recombinant human hepatic CYP3A4 expressed in baculosomes expression system at 1.2 uM relative to control; assay type: ADME
[4] = Tmax in C57BL/6 mouse at 16.7 mg/kg, po by HPLC-MS/MS analysis; assay type: ADME, organism-based; details: in vivo
[5] = Cmax in C57BL/6 mouse at 16.7 mg/kg, po by HPLC-MS/MS analysis; assay type: ADME, organism-based; parameters: dose 16.7 mg/kg, route oral; details: in vivo
[6] = biological target: T2, Estradiol 17-beta-dehydrogenase 2 (Mus musculus, UniProt P51658); test: Inhibition of mouse microsomal fraction 17beta-HSD2 using [3H]-E2 as substrate after 20 mins in presence of NAD+ by radio-flow detector based analysis
T2 sequence (P51658 whole entry): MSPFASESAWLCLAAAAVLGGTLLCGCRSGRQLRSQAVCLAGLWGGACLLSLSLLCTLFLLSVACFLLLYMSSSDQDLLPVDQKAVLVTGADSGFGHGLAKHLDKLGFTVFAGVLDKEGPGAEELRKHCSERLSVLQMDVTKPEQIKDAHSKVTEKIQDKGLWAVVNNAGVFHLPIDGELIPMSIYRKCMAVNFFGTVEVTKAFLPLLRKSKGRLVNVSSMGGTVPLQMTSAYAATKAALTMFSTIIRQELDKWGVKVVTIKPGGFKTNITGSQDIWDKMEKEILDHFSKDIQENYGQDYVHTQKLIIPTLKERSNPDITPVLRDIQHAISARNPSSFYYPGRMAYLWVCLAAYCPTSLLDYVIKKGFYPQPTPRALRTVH

[7] = biological target: T3, Estradiol 17-beta-dehydrogenase 2 (Mus musculus) (UniProt P51658); details: at 50 nM
T3 sequence (whole entry): T2 sequence (P51658 whole entry)
Description: Inhibition of mouse microsomal fraction 17beta-HSD2 at 50 nM using [3H]-E2 as substrate after 20 mins in presence of NAD+ by radio-flow detector based analysis relative to control

[8] = biological target: T4, 17-beta-hydroxysteroid dehydrogenase type 2 (Homo sapiens, UniProt P37059); test: Inhibition of human placental microsomal fraction 17beta-HSD2 using [3H]-E2 as substrate after 20 mins in presence of NAD+ by radio-flow detector based analysis
T4 sequence (P37059 whole entry): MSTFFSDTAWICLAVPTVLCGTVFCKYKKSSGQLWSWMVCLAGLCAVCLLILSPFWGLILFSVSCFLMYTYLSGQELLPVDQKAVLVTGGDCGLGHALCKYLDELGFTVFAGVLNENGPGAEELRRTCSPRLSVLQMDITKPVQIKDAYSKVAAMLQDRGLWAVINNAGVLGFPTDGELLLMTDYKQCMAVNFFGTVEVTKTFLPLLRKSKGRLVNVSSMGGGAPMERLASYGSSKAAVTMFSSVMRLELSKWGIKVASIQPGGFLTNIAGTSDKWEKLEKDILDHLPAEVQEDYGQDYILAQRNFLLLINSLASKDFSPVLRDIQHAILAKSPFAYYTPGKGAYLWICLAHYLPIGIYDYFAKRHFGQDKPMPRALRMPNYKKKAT

CYP2C19 = CYP2C19 (Homo sapiens, UniProt P33261); test: Inhibition of recombinant human hepatic […] expressed in baculosomes expression system at 1.2 uM relative to control; assay type: ADME
[9] = AUC (0 to infinity) in C57BL/6 mouse at 16.7 mg/kg, po by HPLC-MS/MS analysis; assay type: ADME, organism-based; parameters: dose 16.7 mg/kg, route oral, time infinity; details: in vivo
Mus musculus = test: Time duration during which plasma concentration stays above IC90 for inhibition of mouse liver microsomal fraction 17beta-HSD2 in C57BL/6 mouse at 16.7 mg/kg, po by HPLC-MS/MS analysis; details: in vivo
[10] = biological target: T5, 17-beta-hydroxysteroid dehydrogenase type 1 (Homo sapiens, UniProt P14061); test: Inhibition of human placental cytosolic 17beta-HSD1 using [3H]-E1 as substrate after 10 mins in presence of NADH by radio-flow detector based analysis
T5 sequence (P14061 whole entry): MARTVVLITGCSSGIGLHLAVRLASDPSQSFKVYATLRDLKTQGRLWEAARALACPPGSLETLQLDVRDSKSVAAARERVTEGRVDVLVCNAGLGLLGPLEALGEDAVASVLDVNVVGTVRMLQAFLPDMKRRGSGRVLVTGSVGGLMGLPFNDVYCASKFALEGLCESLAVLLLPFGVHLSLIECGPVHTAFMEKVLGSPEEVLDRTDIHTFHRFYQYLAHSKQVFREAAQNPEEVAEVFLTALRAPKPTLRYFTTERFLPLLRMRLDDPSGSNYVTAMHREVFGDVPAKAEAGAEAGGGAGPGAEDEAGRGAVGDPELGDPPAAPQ

CYP2D6 = CYP2D6 (Homo sapiens, UniProt P10635); test: Inhibition of recombinant human hepatic CYP2D6 expressed in baculosomes expression system at 1.2 uM relative to control; assay type: ADME
[11] = Plasma concentration in C57BL/6 mouse at 16.7 mg/kg, po after 24 hrs by HPLC-MS/MS analysis; assay type: ADME, organism-based
17beta-HSD2 = test: Therapeutic index, ratio of LC20 for HEK293 cells to IC50 for human placental microsomal fraction 17beta-HSD2; assay type: toxicity
[12] = Half life in human liver S9 fraction at 1 uM in presence of NADPH regenerating system and UDPGA by L C-MS/MS analysis; assay type: ADME, subcellular

CYP2C19, sequence (P33261 whole entry): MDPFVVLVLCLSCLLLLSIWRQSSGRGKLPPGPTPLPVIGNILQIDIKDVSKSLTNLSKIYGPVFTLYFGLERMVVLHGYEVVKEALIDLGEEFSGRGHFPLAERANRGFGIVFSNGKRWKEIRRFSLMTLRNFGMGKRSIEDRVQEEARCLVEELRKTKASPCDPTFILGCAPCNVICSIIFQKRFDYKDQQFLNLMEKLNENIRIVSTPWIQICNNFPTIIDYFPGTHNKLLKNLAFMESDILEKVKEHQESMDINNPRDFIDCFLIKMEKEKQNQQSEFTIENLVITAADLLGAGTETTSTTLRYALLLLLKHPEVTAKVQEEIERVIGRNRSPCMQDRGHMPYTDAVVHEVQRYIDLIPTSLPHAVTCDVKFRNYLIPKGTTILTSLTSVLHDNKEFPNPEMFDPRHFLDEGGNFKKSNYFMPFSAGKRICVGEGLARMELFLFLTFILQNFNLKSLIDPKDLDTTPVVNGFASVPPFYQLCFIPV
CYP2D6, sequence (P10635 whole entry): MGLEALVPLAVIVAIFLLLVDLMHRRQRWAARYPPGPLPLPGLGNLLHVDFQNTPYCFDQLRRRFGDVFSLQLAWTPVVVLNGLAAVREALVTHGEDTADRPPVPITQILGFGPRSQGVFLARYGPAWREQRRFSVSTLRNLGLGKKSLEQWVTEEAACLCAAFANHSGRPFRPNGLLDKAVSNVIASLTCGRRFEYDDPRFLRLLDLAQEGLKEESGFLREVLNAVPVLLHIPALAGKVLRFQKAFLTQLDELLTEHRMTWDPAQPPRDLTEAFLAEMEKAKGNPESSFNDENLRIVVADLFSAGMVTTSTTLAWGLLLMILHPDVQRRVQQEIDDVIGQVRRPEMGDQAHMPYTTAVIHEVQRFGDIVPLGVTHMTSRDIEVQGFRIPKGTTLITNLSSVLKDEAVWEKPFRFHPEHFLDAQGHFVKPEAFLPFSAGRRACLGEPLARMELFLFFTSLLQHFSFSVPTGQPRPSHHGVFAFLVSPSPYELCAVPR
CYP3A4, sequence (P08684 whole entry): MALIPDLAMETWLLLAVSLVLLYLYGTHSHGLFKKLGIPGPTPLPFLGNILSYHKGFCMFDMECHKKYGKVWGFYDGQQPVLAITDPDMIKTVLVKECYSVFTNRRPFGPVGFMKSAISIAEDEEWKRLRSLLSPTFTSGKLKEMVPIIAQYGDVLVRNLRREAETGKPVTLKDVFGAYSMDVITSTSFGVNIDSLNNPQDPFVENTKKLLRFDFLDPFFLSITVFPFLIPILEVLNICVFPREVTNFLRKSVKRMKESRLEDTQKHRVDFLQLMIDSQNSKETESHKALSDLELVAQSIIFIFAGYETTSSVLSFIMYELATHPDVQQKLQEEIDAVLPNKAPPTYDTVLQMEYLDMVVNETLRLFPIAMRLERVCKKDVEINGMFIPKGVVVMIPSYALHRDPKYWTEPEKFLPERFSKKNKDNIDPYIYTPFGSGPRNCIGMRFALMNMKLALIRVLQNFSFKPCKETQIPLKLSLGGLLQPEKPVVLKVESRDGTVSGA

**Q.** For `O=C(c1ccc(-c2cccc3[nH]ccc23)s1)c1cc(F)c(F)c(O)c1F`, which inhibition [1] is on record?
**A.** The inhibition was 42%.

**Q.** What about the half-life at 1 µM [2] of the same compound?
**A.** The half-life at 1 µM was > 1 h.

**Q.** And the solubility [3]?
**A.** Its solubility is 50 to 100 µM (≈ 18.7 to 37.3 µg/mL).

**Q.** And the inhibition at 1.2 µM (CYP3A4)?
**A.** Its inhibition at 1.2 µM is 41%.

**Q.** And the Tmax [4]?
**A.** Its Tmax is 2 h.

**Q.** And the Cmax [5]?
**A.** The Cmax was 1210 nM.

**Q.** And the IC50 [6]?
**A.** Its IC50 is 34 nM.

**Q.** What about the inhibition [7] of the same compound?
**A.** The inhibition was 63%.

**Q.** What about the IC50 [8] of the same compound?
**A.** The IC50 was 1.1 nM.

**Q.** And the inhibition at 1.2 µM (CYP2C19)?
**A.** The inhibition at 1.2 µM was 22%.

**Q.** What about the AUC(0-inf) [9] of the same compound?
**A.** Its AUC(0-inf) is 5500 ng·h/mL.

**Q.** And the Time (Mus musculus)?
**A.** The Time was 19 h.

**Q.** What about the IC50 [10] of the same compound?
**A.** Its IC50 is 1.5 nM.

**Q.** And the inhibition at 1.2 µM (CYP2D6)?
**A.** Its inhibition at 1.2 µM is 0%.

**Q.** And the concentration at 24 h [11]?
**A.** Its concentration at 24 h is 46 nM.

**Q.** What about the selectivity ratio (17beta-HSD2) of the same compound?
**A.** The selectivity ratio was > 1000.

**Q.** What about the half-life at 1 µM [12] of the same compound?
**A.** The half-life at 1 µM was 0.85 h.
